Reference: US20050059646A1, “Use of 4-androstene-3,6,17-trione to elevate testosterone levels and the testosterone/estrogen ratio in males” (Proviant Technology Inc., priority 2003, published 2005)

Key:
male subjects = experiment: Open label study: 300 mg a-trione bid for three weeks, endocrine markers in resting AM blood draws; format: in vivo, human; set-up: Free Testosterone: unit not given here; conditions: for Total Testosterone: 300 mg bid oral, six male subjects, Week 0 baseline 443.67; for Estradiol / Sex Hormone Binding Globulin (SHBG) / Dihydrotestosterone / Free Testosterone / T/E Ratio: 300 mg bid; for Estradiol: Week 0 baseline 16.5; for Sex Hormone Binding Globulin (SHBG): Week 0 baseline 21.83; for Dihydrotestosterone: Week 0 baseline 33.33; for Free Testosterone: Week 0 baseline 126.67; for T/E Ratio: Week 0 baseline 269/1
Experimental: Six male subjects, aged 32-40 years of age, were prescreened via a medical doctor for endocrinological abnormalities. The subjects' physical characteristics were: height 177.38+/−[…] cm, weight 88.8+/−13.65 kg, body fat percentage 14.9+/−3.5%. Subjects ingested 300 mg a-trione bid for three weeks as part of an open label design. Resting AM blood draws were taken at 0, 1, 2, and 3 weeks of supplementation. Table 1 indicates the changes in endocrine markers over the time evaluated. Results were analyzed using a Repeated Measures-ANOVA design with paired samples t-tests as appropriate. […] Therefore, a-trione can raise the T/E ratio while leaving estradiol in the safe physiological range.

aromatase enzyme = target: T1, aromatase enzyme (Homo sapiens, UniProt P11511); conditions: in-vitro; cited from earlier work
T1 sequence (P11511 1-503): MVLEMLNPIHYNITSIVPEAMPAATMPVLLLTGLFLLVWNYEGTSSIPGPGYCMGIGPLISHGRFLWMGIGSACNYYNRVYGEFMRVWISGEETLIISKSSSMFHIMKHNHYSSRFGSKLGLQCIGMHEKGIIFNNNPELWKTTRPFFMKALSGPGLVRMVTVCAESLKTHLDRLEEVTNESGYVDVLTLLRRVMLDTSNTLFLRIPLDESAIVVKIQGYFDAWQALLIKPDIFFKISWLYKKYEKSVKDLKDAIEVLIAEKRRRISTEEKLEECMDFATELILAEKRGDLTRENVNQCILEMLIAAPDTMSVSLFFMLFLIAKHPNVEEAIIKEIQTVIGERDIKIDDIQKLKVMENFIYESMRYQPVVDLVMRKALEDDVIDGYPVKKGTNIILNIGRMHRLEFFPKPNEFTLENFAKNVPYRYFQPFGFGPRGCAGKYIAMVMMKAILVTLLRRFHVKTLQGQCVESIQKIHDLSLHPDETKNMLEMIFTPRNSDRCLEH

[1] = 300 mg bid for three weeks, change over the time evaluated

C[C@]12CCC(=O)C=C1C(=O)C[C@@H]1[C@@H]2CC[C@]2(C)C(=O)CC[C@@H]12 [a-trione, 4-androstene-3,6,17-trione]
change in estrogen (male subjects; [1]): −11% | increase in testosterone levels (male subjects; [1]): +88% | Total Testosterone (male subjects; Week 1): 701.17 ng/dL | Estradiol (male subjects; Week 1): 16.5 pg/mL | Sex Hormone Binding Globulin (SHBG) (male subjects; Week 1): 20.5 nmol/L | Dihydrotestosterone (male subjects; Week 1): 39.83 ng/dL | Free Testosterone (male subjects; Week 1): 216.67 | T/E Ratio (male subjects; Week 1): 425/1 | Total Testosterone (male subjects; Week 2): 752.17 ng/dL | Estradiol (male subjects; Week 2): 14.8 pg/mL | Sex Hormone Binding Globulin (SHBG) (male subjects; Week 2): 19.5 nmol/L | Dihydrotestosterone (male subjects; Week 2): 45.83 ng/dL | Free Testosterone (male subjects; Week 2): 252.33 | T/E Ratio (male subjects; Week 2): 508/1 | Total Testosterone (male subjects; Week 3): 835.33 ng/dL | Estradiol (male subjects; Week 3): 14.67 pg/mL | Sex Hormone Binding Globulin (SHBG) (male subjects; Week 3): 18.83 nmol/L | Dihydrotestosterone (male subjects; Week 3): 47.5 ng/dL | Free Testosterone (male subjects; Week 3): 285.67 | T/E Ratio (male subjects; Week 3): 569/1 | effect on estradiol (in words) (male subjects; male endocrinological profile): small, barely significant decrease in estradiol | effect on testosterone (in words) (male subjects; male endocrinological profile): very marked increase of testosterone | aromatase inhibiting activity (aromatase enzyme): has been shown to have aromatase inhibiting activity in-vitro
